Results: patent publication EP0246888A2, “Dopamine-beta-hydroxylase inhibitors” (SMITHKLINE BECKMAN CORPORATION, priority 1986, dated 1987)

Key:
[1] = system: spontaneously hypertensive rats; assay: mean arterial blood pressure in spontaneously hypertensive rats; assay type: in vivo
Description: Further, spontaneously hypertensive rats were treated with a suspension or solution of 1-benzyl-1,2,4-triazole-5-thiol at a dose of 100 mg/kg orally, and mean arterial blood pressure was monitored for 260 minutes using indwelling cannulae positioned in the tail arteries. When compared to vehicle-treated controls, the compound-treated animals' blood pressure was approximately 5% below that of controls 20 minutes following treatment. The compound-treated animals' blood pressure continued to fall until it reached its nadir of approximately 20% less than controls at 240 minutes after compound treatment. Similarly, 1-(3ʹ-fluorobenzyl)-1,2,4-triazole-5-thiol produced approximate 20% blood pressure reductions one hour after a 50 mg/kg intraperitoneal dose. The blood pressure of the treated animals remained approximately 20% less than controls when blood pressure monitoring was terminated.

[2] = target: T1, DBH (Homo sapiens, UniProt P09172); settings: reported by Runti et al., Il Farmaco Ed. Sci. 36, 260 (1980); cited from earlier work
T1 sequence (P09172 1-617): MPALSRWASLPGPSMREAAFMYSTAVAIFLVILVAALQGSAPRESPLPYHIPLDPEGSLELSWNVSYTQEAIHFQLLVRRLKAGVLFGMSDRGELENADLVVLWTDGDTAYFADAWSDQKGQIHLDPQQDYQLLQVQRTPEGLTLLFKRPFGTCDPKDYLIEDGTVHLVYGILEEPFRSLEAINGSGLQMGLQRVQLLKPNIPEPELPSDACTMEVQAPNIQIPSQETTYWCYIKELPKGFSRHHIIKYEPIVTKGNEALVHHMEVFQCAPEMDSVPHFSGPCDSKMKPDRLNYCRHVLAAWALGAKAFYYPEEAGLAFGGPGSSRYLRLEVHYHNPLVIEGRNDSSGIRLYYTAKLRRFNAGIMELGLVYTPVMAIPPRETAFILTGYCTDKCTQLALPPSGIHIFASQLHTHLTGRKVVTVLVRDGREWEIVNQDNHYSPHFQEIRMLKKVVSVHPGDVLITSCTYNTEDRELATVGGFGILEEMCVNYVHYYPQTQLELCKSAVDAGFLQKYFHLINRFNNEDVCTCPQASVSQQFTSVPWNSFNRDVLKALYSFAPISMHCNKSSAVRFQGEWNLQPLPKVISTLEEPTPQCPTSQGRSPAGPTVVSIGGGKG

Fc1cccc(Cn2ncnc2S)c1 [1-(3ʹ-Fluorobenzyl)-1,2,4-triazole-5-thiol]
blood pressure reductions ([1]; 50 mg/kg intraperitoneal dose, one hour after dose): approximately 20%
blood pressure less than controls ([1]; 50 mg/kg intraperitoneal dose, when blood pressure monitoring was terminated): approximately 20%

phenylpicolinic acid
inhibitory activity relative to fusaric acid [2]: twice the inhibitory activity of fusaric acid

Sc1ncnn1Cc1ccccc1 [1-benzyl-1,2,4-triazole-5-thiol, 1-Benzyl-1,2,4-triazole-5-thiol]
blood pressure below that of controls ([1]; 100 mg/kg orally, 20 minutes following treatment, vs vehicle-treated controls): approximately 5%
blood pressure nadir, less than controls ([1]; 100 mg/kg orally, 240 minutes after compound treatment, vs vehicle-treated controls): approximately 20%
